We go through 1 compound from patent publication US11091429B2, “Organic compounds” (Givaudan SA, priority 2012, dated 2021).

“Also recorded” adds a separate entry of the source.

Assay [1] is described as follows: Tasting on fried potato snack product. The conditions noted are these: 35% fat, cheese seasoning. The procedure: (§1) The following formulations were prepared and tasted by trained panelists.
A snack product consisting of a fried potato base, containing 35% fat and flavored with cheese seasoning containing salt, MSG, dairy, organic acids, sugars, and a flavour formulation. The following compounds were added to the snack product at the indicated levels and the tasting results are reported: […]

A further assay in a line: Tasting in cheese sauce. As to conditions: 0.5 PPM in cheese sauce 5% fat 1.6% salt. The procedure:
as §1
Cheese sauce: 5% fat 1.6% salt
(§2) Samples were prepared and evaluated by expert tasters. Tasters were asked to describe the samples focusing on authentic taste, mouthfeel, fullness, salivation, salty-ness, umami, sweetness, juiciness, richness, long lastingness and fattiness.
Cheese Sauce: 5% Fat 1.6% Salt

A further assay is described as follows: Tasting in soy milk. As to conditions: 2 ppm, soy milk (1.8% fat), 5% sucrose, milk flavour 0.1%. The procedure: In a soy milk (1.8% fat) sweetened with 5% sucrose by weight, flavoured with a proprietary milk flavour ata dosage of 0.1%, C18:2-gaba was added at 2 ppm
Samples were evaluated by expert tasters. Tasters were asked to describe the samples focusing on authentic taste, mouthfeel, fullness, salivation, sweetness, juiciness, richness, long lastingness and fattiness.

Assay [2] in a line: Tasting in spreadable cheese. The conditions noted are these: 0.5 PPM in spreadable cheese (Eru). The procedure: as §1
(§3) Samples were prepared and evaluated by expert tasters. Tasters were asked to describe the samples focusing on authentic taste, mouthfeel, fullness, salty-ness, salivation, umami, sweetness, juiciness, richness, long lastingness and fattiness.
Test on “Eru Prestige” Spreadable Cheese
Base is Eru prestige (market product)
as §2

The nature of assay [3]: Tasting of chicken filet fried in oil. The procedure: as §1
Differentiator high temperature 100-250 degrees Celsius in a frying in oil process
C18:2 gaba @ 2.0 PPM in 135 gram frying oil (blue band 82% Fat) 450 gram chicken filet 2 minutes high fire and 5 minutes medium fire.

Assay [4] can be described thus: Tasting in yoghurt, cream flavoured. As to conditions: 2 ppm, cream flavour 0.03%. The procedure:
Yoghurt Cream Flavoured, Non-Sweetened and Different Fat Levels
In a Yoghurt containing 0% 1.5% and 3% fat, flavoured with proprietary cream flavour dosed at 0.03%, C18:2-gaba was added at 2 ppm. Samples were evaluated by expert tasters. Tasters were asked to describe the samples focusing on authentic taste, acidity, mouthfeel, fullness, salivation, sweetness, juiciness, richness, long lastingness and fattiness.

Another assay in a line: Test on mouthwash. As to conditions: 1 ppm, Paradontax alcohol free mouthwash. The procedure: (§4) Samples were evaluated by expert tasters. Tasters were asked to describe the samples focusing on authentic taste, mouthfeel, fullness, salty-ness, salivation, umami, sweetness, juiciness, richness, long lastingness and fattiness.
Base: Paradontax alcohol free mouthwash.

Another assay in a line: Tasting in butter. As to conditions: 1 ppm in Blueband butter 82% fat 1.5% salt. The procedure: as §1
Blueband 82% fat 1.5% salt

The next assay is described as follows: Test on Breezer Orange. As to conditions: 0.5 ppm, 4% alcohol. The procedure:
Samples were evaluated by expert tasters. Tasters were asked to describe the samples focusing on authentic taste, alcohol impact, juiciness, mouthfeel, fullness, salivation, sweetness, bitterness, richness, long lastingness and fattiness.

The nature of assay [5]: Tasting in Activa strawberry yoghurt. As to conditions: 2 ppm, 13.5% sugar, 3.2% fat. The text has this:
Activa Strawberry Yoghurt
In a Full fat, Activa strawberry flavoured yoghurt containing 13.5% sugar, 3.2% fat C18:2-gaba and C18:0-leu at 2 ppm

Assay [6] is described as follows: Test on organic acids in a beverage. The conditions noted are these: 1 ppm, water, 7% sucrose. The procedure:
14—Testing with Beverages Containing Organic Acids from 0.01% to 7%
Test 18:2 Gaba on Organic Acids in a Beverage.
In a solution containing water, 7% sucrose by weight, and different organic acids, 18:2 gaba was added at 1 ppm. We observed taste effects on the acid perception upon addition of 18:2 gaba.
Base is water, 7% Sucrose by weight, Tartaric acid at 0.121% by weight
Base is water, 7% Sucrose by weight, Malic acid at 0.1081% by weight
Base is water, 7% Sucrose by weight, Citric acid at 0.1% by weight
Base is water, 7% Sucrose by weight, Fumaric acid at 0.0936% by weight

Assay [7] can be described thus: Test in pear flavoured drink. The conditions noted are these: 1 ppm; water, 7% sugar (8% elsewhere in the source), 0.1% citric acid, pear flavour 0.025%. The procedure:
as §3
Test in Pear Flavoured Drink:
Base: water, 7% sugar, 0.1% citric acid, proprietary pear flavour at 0.025%
as §4
Comparison in a Pear Drink
Base is water, 8% sugar, 0.1% citric acid, proprietary pear flavour at 0.025%

Assay [8] is described as follows: Tasting in strawberry flavoured sugar sweetened yoghurt. The conditions noted are these: 2 ppm, 1.5% fat yoghurt, 8% sucrose, strawberry flavour 0.015%.
Assay [9] can be described thus: Tasting in mango still beverage, 6% clear mango juice. As to conditions: 1 ppm; 6% clear mango juice (full juice). The procedure: Mango Flavoured Still Beverage Containing Different Levels of Juice,
In a Mango flavoured still beverage, sweetened with 8% sucrose and containing 0.1% citric acid and 1%, 4% and 6% clear mango juice flavoured with a proprietary Mango flavour @ 0.05%, C18:2-gaba and C18:2-Pro were added, as such (separate) and in combination.
All samples were evaluated by expert tasters. Tasters were asked to describe the samples focusing on authentic taste, juicy mouthfeel, enhancement, richness, juiciness, long lastingness, salivation, sweetness.
In a Mango-flavoured still beverage, sweetened with 8% sucrose & containing 0.1% citric acid and 6% clear mango juice flavoured with Mango flavour@0.05%, C18:2-gaba and C18:2-Pro were added, as such (separate) and in combination.
Base is water, 8% sucrose, 0.1% citric acid, 6% clear mango juice (full juice), flavoured with Mango flavor, dosed at 0.05%.

As for `CCCCC/C=C\C/C=C\CCCCCCCC(=O)NCCCC(=O)O` [C18:2-gaba], the tasting result is “increased dairy, cheesy” in assay [1] (0.5 ppm on fried potato snack); “Fatty full, cheesy, cheese crust, long lasting” in assay [1] (1 ppm on fried potato snack); “Full, Salty, cheese bite expanding” in the assay “Tasting in cheese sauce”; “clean, creamy, good masking of the soy bean taste, creamy and milky” in “Tasting in soy milk”; “full salty, much more cheese bite, umami, lingering, long lasting” in assay [2]; “Full, Salty, cheese bite, more mature” in assay [2] (listed as C18:2 gaba). The tasting result in assay [4] (yoghurt 0% fat) was “less acidic, slight creamy aftertaste”; in assay [4] (yoghurt 1.5% fat), “very creamy, thick, nice long lasting, whipped cream note”; in assay [4] (yoghurt 3% fat), “less acidic, much more creamy, very long lasting creamy aftertaste”; in “Test on mouthwash”, “much less bitter, very sweet, smooth, less burning, round spicy, more minty and more cooling”; in the assay “Tasting in butter”, “more authentic butter taste, with more mouthfeel”; in “Test on Breezer Orange”, “more alcoholic, sweeter, more juicy orange, less soapy”. Further, the tasting result in assay [5] is “very creamy, full and fresh strawberry”; in assay [6] (citric acid 0.1% by weight) it was “decreased sharp acidic perception, full body mouth feel, higher higher mouthwatering, and an impression of the juicy notes of citrus fruit (orange, lemon)”; in [6] (fumaric acid 0.0936% by weight) it was “decreased sharp acidic perception, full body mouthfeel effects, higher sweet effects, and an impression of the full notes characteristic of sweet red & vanillic flavor types (vanilla, chocolate, raspberry, cherry, especially benzaldhyde)”; in assay [6] (malic acid 0.1081% by weight) it was “decreased sharp acidic perception, give fuller body, mouthfeel, higher mouthwatering, and an impression of the flesh and skin notes of fruit (apple)”; in [6] (tartaric acid 0.121% by weight), “decreased sharp acidic perception, full body mouthfeel, higher mouthwatering, more immediate (upfront hit), and an impression of the flesh of fruit (grape, apple, banana, pear-like)”; in [7], “long lasting, juicy and fatty skin like very authentic, like eating the fruit instead of drinking a drink”. Further, the tasting result is “very creamy and fresh strawberry; also recorded: creamy, fruity authentic strawberry, stronger strawberry, ripe, long lasting, juicy” in assay [8]; “fatty skin-like, very thick juicy, authentic mango, long lasting mango taste, rich” in assay [9]. In addition, the “taste of the frying oil” value in assay [3] (2.0 PPM in 135 gram frying oil (blue band 82% Fat)) is listed as “more savoury golden brown notes”. Besides, in [3] (2.0 PPM in 135 gram frying oil, 450 gram chicken filet, 2 minutes high fire and 5 minutes medium fire), the “taste of the chicken” value is recorded as “more juicy, succulent, lingering more white meat”.
